Our source for the IC50 values is PMC4747042 (Molecular microbiology, 2009).

By pIC50 is commonly meant the negative decadic logarithm of the IC50, by convention in mol/L. Low values mean a large IC50, high ones a small IC50.

pIC50: −log10 of the molar value.

The experiment concerns the target T1, MenA (Mycobacterium tuberculosis, UniProt P9WIP3).
T1 sequence (P9WIP3 1-292): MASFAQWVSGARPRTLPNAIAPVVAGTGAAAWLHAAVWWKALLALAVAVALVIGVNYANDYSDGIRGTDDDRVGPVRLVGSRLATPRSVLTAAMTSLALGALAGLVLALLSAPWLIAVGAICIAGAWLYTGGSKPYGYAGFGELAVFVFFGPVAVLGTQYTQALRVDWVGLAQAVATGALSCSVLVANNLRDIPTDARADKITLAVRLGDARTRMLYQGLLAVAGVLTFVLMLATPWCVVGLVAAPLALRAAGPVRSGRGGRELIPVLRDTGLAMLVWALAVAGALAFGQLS
The class given is biochemical.

`C=CCN(C)CCCCCCOc1ccc(C(=O)c2ccc(Br)cc2)c(F)c1` [Ro 48-8071] had a pIC50 of 5.05.
